Experimental data as given in article PMC11434480, “Discovery and Optimization of Ergosterol Peroxide Derivatives as Novel Glutaminase 1 Inhibitors for the Treatment of Triple-Negative Breast Cancer” (Molecules, 2024).

Experiments:
MDA-MB-231 cells [1] = assay: Western blot of apoptosis proteins; format: cell-based, human; conditions: MDA-MB-231, 48 h
Experimental: (§1) To determine whether the decrease in MDA-MB-231 cell viability observed after 3g treatment was related to apoptosis, we treated MDA-MB-231 cells with 3g and assessed the changes in apoptosis.
MDA-MB-231 cells were subjected to treatment with different concentrations of 3g or 0.1% DMSO for 48 h. Subsequently, the cells were gathered, and the total protein was extracted by adding protease inhibitors and phosphatase inhibitors along with 1 × RIPA lysis buffer (Beyotime Company). The quantification of the extracted protein was carried out using a BCA kit (ComWin Biotech Company, Beijin, China). The extracted total protein, with an amount of 20 μg/well, underwent SDS–polyacrylamide gel electrophoresis (SDS-PAGE, provided by BioRad Laboratories located in Hercules, CA, USA). The protein was then wet-transferred to a PVDF membrane. Next, GLS1, Bcl-2, Bax, Cyt C, caspase-9, cleaved caspase-9, caspase-3, cleaved caspase-3, and GAPDH were incubated at 4 °C overnight. Subsequently, the secondary isotype-specific antibody, which was labeled with horseradish peroxidase, was obtained from Cell Signaling Technology. The color was developed with an ECL luminescent solution (Meilun Biotech Company, Dalian, China) and detected using a gel imager (ChemiDoc MP, BioRad Laboratories, CA, USA).

A549 = assay: MTT antiproliferative assay, A549; format: cell-based, human; conditions: Homo sapiens, A549, 48 h, mean of three experiments ± SD
Experimental: (§2) The in vitro antiproliferative activity of the novel EP derivatives (1a–h, 2a–h, 3a–h, and 4a–h) was evaluated on four different human cancer cell lines (A549, HepG2, MCF-7, and MDA-MB-231) using an MTT assay.
(§3) Cells containing 10% fetal bovine serum (FBS; WISENT, Nanjing, China) were cultured in an L-15 culture medium (L-15, BOSTER, Wuhan, China) in an incubator at 37 °C. The cells were then inoculated into 96-well plates at a density of 5 × 10^3/well, cultured in 100 μL L-15 medium for 24 h, and incubated with the compound to be tested for 48 h. Next, 20 μL of MTT (5 mg/mL) solution was added and incubated at 37 °C for 4 h away from light. A resorption culture medium was then supplemented with 150 μL DMSO per well. The absorbance was measured at 570 nm using an enzymometer (SAFIRE2, Tecan, Swiss Confederation, Männedorf, Switzerland). The cytotoxic activity was presented in terms of half the inhibition rate.

MDA-MB-231 cells [2] = assay: Colony formation assay; format: cell-based; conditions: Homo sapiens, MDA-MB-231 colony formation, vs blank control, read-out: proliferation inhibition rate
Experimental: To explore the inhibitory effect of 3g on the proliferation of MDA-MB-231 cells, we treated MDA-MB-231 cells with different concentrations of 3g and EP.
MDA-MB-231 cells (1000 cells/well) were seeded into a 6-well plate with 2 mL L–15 culture medium and incubated at 37 °C for 24 h. Following this process, different concentrations of 3g or EP were added and incubated for an additional 24 h before the culture medium was replaced. The cells then continued to be cultured for two weeks, with the culture medium being changed twice a week. After two weeks, the cell colonies were washed with PBS, fixed using a 4% paraformaldehyde solution (Beyotime, Shanghai, China), and subsequently stained with a 0.05% crystal violet solution (Beyotime, Shanghai, China).

HepG2 = assay: MTT antiproliferative assay, HepG2; format: cell-based, human; conditions: Homo sapiens, HepG2, 48 h, mean of three experiments ± SD
Experimental: as §2, §3

MDA-MB-231 = assay: MTT antiproliferative assay, MDA-MB-231; format: cell-based, human
Experimental: as §2, §3

MDA-MB-231 cells [3] = assay: ROS assay (DCFH-DA, confocal microscopy and flow cytometry); format: cell-based, human; conditions: MDA-MB-231, different concentrations, 48 h
Experimental: Excessive ROS in tumor cells can induce tumor cell apoptosis. Nevertheless, the ROS levels in tumor cells were often influenced by glutamine. Thus, the regulation of glutamine metabolism was crucial for ROS homeostasis. In this study, laser confocal microscopy and flow cytometry were employed to detect the ROS level.
MDA-MB-231 cells were inoculated in 24-well plates at a density of 8 × 10^3 cells per well and incubated with different concentrations of 3 g or 0.1% DMSO for 48 h. The cells were washed with PBS 1–2 times. The cells were then incubated at 37 °C for 20 min with reference to a DCFH-DA fluorescent probe kit (Keygen Company, Nanjing, China) and washed with a serum-free medium 1–2 times. The ROS levels were observed via laser confocal microscopy (LSM710, Zeiss, Oberkochen, Germany) or detected with flow cytometry (FACS Calibur, Becton, Dickinson and Company, Franklin Lakes, NJ, USA).

MDA-MB-231 cells [4] = assay: Annexin V-FITC/PI apoptosis assay (flow cytometry); format: cell-based, human; conditions: Annexin V-FITC/PI double staining, 48 h
Experimental: as §1
An Annexin V FITC/PI apoptosis detection kit (Keygen Company, Nanjing, China) was employed to identify apoptotic cells. Briefly, MDA-MB-231 cells were subjected to treatment with varying concentrations of 3g or 0.1% DMSO and incubated at 37 °C for 48 h. Subsequently, the cells were harvested and resuspended in PBS at a concentration of 1 × 10^5 cells/mL. Following centrifugation at 2000 rpm/min for 5 min, 500 μL binding buffer, 5 μL Annexin V FITC, and 5 μL propidium iodide (PI) were added. The mixture was then incubated at room temperature in the absence of light for 20 min. Finally, the samples were analyzed using FACSCalibur flow cytometry (Becton, Dickinson and Company, Franklin Lakes, USA).

MDA-MB-231 cells [5] = format: cell-based, human; conditions: 2, 4 and 8 μM, 48 h
4T1 cells = assay: 4T1 transplanted tumor model in BALB/c mice
human GLS1 = target: T1, human GLS1 (Homo sapiens, UniProt O94925); assay: GLS1 inhibitor screening kit in MDA-MB-231 cells; format: cell-based; conditions: 48 h, read-out: GLS1 inhibition IC50
T1 sequence (O94925 55-669): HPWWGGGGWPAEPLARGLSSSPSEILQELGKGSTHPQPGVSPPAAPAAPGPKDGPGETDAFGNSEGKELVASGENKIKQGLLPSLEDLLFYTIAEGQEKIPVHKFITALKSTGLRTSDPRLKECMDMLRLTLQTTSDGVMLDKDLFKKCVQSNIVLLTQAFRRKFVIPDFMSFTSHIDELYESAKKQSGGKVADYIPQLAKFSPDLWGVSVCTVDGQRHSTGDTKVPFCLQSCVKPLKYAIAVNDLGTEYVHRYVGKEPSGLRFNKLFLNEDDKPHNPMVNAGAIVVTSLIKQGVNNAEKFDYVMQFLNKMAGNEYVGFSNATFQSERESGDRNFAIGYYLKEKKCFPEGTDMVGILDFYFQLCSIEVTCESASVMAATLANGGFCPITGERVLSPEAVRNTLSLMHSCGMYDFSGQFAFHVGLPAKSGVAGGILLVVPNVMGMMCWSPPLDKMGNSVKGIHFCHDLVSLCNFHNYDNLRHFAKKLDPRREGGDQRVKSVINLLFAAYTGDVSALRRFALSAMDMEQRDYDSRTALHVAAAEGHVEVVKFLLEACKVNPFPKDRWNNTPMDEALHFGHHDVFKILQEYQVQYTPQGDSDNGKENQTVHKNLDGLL
Experimental: The GLS1 inhibitory activity of compound 3g in MDA-MB-231 cells was evaluated using a GLS1 inhibitor screening kit.
MDA-MB-231 cells were cultured for 24 h and then incubated with different concentrations of 3g or 0.1%DMSO for 48 h and washed with PBS 1–2 times. The cells were then collected, subjected to ultrasound in an ice bath for 5 min, and centrifuged at 4 °C and 1200 g for 15 min. Next, the GLS1 activity in human GLS1 was evaluated according to the manufacturer’s guidelines using a GLS1 screening kit (Sangon Biotech #D799306, Shanghai, China) in a 96-well plate (Corning # 351172, New York, NY, USA).

MCF-7 = assay: MTT antiproliferative assay, MCF-7; format: cell-based, human; conditions: Homo sapiens, MCF7, 48 h, mean of three experiments ± SD
Experimental: as §2, §3

[6] = 25 and 50 mg/kg/2 days, intraperitoneal, 14 days

In the case of COc1ccc(NC(=O)CCCC(=O)OC2CCC3(C)C4CCC5(C)C(C(C)C=CC(C)C(C)C)CCC5C45C=CC3(C2)OO5)cc1 (stereo not drawn) [Compound 3g], the “expression of Bax, Cyt C, cleaved caspase-9 and cleaved caspase-3” value (MDA-MB-231 cells [1]) is reported as “significantly upregulated”, the “expression of Bcl-2” value (MDA-MB-231 cells [1]) is reported as “decreased the expression” and the IC50 (A549) is reported as 13.5 ± 1.14 µM. It also gave an inhibition at 2 µM (MDA-MB-231 cells [2]) of 56.3%, an IC50 (HepG2) of 15.5 ± 0.63 µM and an IC50 (MDA-MB-231; Homo sapiens, MDA-MB-231, MTT, 48 h, mean of three experiments ± SD) of 3.2 ± 0.29 µM. For the same compound, the “fold higher activity than EP against MDA-MB-231” value (MDA-MB-231; ratio of IC50 values, EP vs compound) was 5.4 fold, the “intracellular ROS level” value (MDA-MB-231 cells [3]) was “significantly elevated the intracellular ROS level” and the “apoptosis of MDA-MB-231 cells” value (MDA-MB-231 cells [4]) was “increased significantly”. The “glutamate production in MDA-MB-231 cells” value (MDA-MB-231 cells [5]) was “reduced the production of glutamate in MDA-MB-231 cells in a dose-dependent manner”, the “effect on body weights of the mice” value (4T1 cells; [6]) was “no significant effect” and the “tumor volume and tumor weight” value (4T1 cells; [6]) was “significantly reduced”. The tumor growth (4T1 cells; 25 and 50 mg/kg/2 days, intraperitoneal, 14 days, vs blank control) was “effectively inhibited”, the “therapeutic effect in mouse model of breast cancer” value (4T1 cells; dose of 50 mg/kg) was “remarkable therapeutic effects” and the “toxicity in mouse model of breast cancer” value (4T1 cells; dose of 50 mg/kg) was “no apparent toxicity”. The “histopathological changes in heart, liver, spleen, lungs and kidneys (HE staining)” value (4T1 cells; tumor-bearing mice, 14 days treatment) was “no histopathological changes”, the IC50 (human GLS1) was 3.77 µM and the IC50 (MCF-7) was 4.57 ± 0.62 µM.
